Data as given in patent publication US8759342B2, “Benzo[1,4]oxazin-3-one, benzo[1,4]thiazin-3-one and quinolin-2-one urotensin II receptor antagonists” (Janssen Pharmaceutica NV, priority 2006, dated 2014).

How the values were obtained:
[1] = biological target: T1, rat GPR14 (U-II receptor) (Rattus norvegicus, UniProt P49684); experiment: Calcium flux assay (FLIPR); type: cell-based; conditions: Inhibition of acetyl-cyclic[Cys-Phe-Trp-Lys-(2-Nal)-Cys]-NH2 (1 nM) induced Ca2+ mobilization (FLIPR) in CHO cells transfected with rat UII receptor; 5 min incubation
T1 construct: expressed in transfected cells
T1 sequence (P49684 1-386): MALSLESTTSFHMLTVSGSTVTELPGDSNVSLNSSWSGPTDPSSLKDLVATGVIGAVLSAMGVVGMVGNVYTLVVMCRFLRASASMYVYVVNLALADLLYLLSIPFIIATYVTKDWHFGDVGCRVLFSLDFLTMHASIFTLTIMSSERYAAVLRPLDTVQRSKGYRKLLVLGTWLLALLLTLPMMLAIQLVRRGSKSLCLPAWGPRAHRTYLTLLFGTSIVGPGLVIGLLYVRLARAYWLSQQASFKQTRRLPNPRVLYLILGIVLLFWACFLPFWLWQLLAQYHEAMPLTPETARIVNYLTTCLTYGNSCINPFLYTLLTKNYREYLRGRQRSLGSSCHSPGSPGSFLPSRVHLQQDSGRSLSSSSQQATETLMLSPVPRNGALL
Source text: To derive these cells, the complete coding sequence of rat […] was amplified by nested PCR from rat heart marathon-Ready cDNA. […] The PCR products were cloned into pcDNA3 (Invitrogen) digested with EcoR I and Xba I. Clones containing rat U-II receptor were verified by complete sequencing of the U-II receptor insert to ensure a lack of PCR-introduced errors. The constructed vector was transfected into CHO cells by using lipofectamine (GIBCO BRL). CHO cells with high expression of rat U-II receptor were selected and established as stable cell lines by using G418. CHO cells were seeded at 25,000 cells per well into 96-well, black-wall, clear-bottom microtiter plates 24 hrs before assay. Cells in culture media (DMEM/F12 containing 15 mM HEPES, L-glutamine, pyridoxine hydrochloride; 10% fetal bovine serum; 1 mg/mL G418 sulfate; antibiotic-antimycotic; pH 7.4) were loaded with proprietary dye, from the FLIPR Calcium Assay Kit (Molecular Devices), prepared in assay buffer (Hanks Balanced Salts Solution, 20 mM HEPES, 0.1% BSA, 2.5 mM probenecid, pH 7.4), and incubated for 1 hr at 37° C. Calcium mobilization determinations were performed at room temperature (23° C.).

Human UII receptors = biological target: T2, Human UII receptors (Homo sapiens, UniProt Q9UKP6); experiment: Human radioligand binding assay, (125I)-U-II on HSMM; conditions: 0.150 nM (125I)-U-II, intact Human Skeletal Muscle Myoblasts, 3 hrs, 25° C.; read-out: Ki
T2 construct: host or cells: Human Skeletal Muscle Myoblasts (HSMM), intact adherent cells
T2 sequence (Q9UKP6 1-389): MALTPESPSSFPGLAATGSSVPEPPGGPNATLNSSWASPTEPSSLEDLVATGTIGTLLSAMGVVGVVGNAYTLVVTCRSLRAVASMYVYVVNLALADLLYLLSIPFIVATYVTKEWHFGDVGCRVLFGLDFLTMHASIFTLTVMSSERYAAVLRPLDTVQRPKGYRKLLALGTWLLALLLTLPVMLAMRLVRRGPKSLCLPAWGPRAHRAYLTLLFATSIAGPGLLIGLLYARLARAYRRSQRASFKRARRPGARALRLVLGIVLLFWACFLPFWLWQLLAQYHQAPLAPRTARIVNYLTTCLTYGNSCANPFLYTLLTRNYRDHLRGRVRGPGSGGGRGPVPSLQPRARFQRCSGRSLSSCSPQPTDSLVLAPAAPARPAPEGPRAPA
Procedure: Human Skeletal Muscle Myoblasts (HSMM) were obtained from Cambrex, and were cultured according to manufacturer's instruction. Cell viability was examined by trypan blue exclusion. Cells at less than 4 passages were used in all studies. […] The binding medium used was Dulbecco's modified Eagle's medium (DMEM) containing 2 mg/ml BSA and 25 mM HEPES (pH 7.4). […] The cells were washed 4× with the binding medium and solubilized in 1% SDS and 0.5 N NaOH. Radioactivity was quantified by gamma counting.

O=C(NCCc1ccccc1)c1ccccc1C1CCN(CCN2C(=O)COc3ccccc32)CC1 [Cpd 1, 2-{1-[2-(3-oxo-2,3-dihydro-benzo[1,4]oxazin-4-yl)-ethyl]-piperidin-4-yl}-N-phenethyl-benzamide]
IC50 [1]: 7.5 µM
Ki (Human UII receptors): 2.9 µM

O=C(NCCCc1ccccc1)c1ccccc1C1CCN(CCN2C(=O)COc3ccccc32)CC1 [Cpd 3]
IC50 [1]: 4.2 µM
Ki (Human UII receptors): 0.33 µM

O=C(NCCc1ccc2ccccc2c1)c1ccccc1C1CCN(CCN2C(=O)COc3ccccc32)CC1 [Cpd 20, N-(2-naphthalen-2-yl-ethyl)-2-{1-[2-(3-oxo-2,3-dihydro-benzo[1,4]oxazin-4-yl)-ethyl]-piperidin-4-yl}-benzamide]
IC50 [1]: 2 µM
Ki (Human UII receptors): 0.72 µM

O=C(NCCc1c[nH]c2ccccc12)c1ccccc1C1CCN(CCN2C(=O)COc3ccccc32)CC1 [Cpd 26, N-[2-(1H-indol-3-yl)-ethyl]-2-{1-[2-(3-oxo-2,3-dihydro-benzo[1,4]oxazin-4-yl)-ethyl]-piperidin-4-yl}-benzamide]
IC50 [1]: 2 µM
Ki (Human UII receptors): 0.75 µM

O=C(NCCc1ccc(Br)cc1)c1ccccc1C1CCN(CCN2C(=O)COc3ccccc32)CC1 [Cpd 34, N-[2-(4-bromo-phenyl)-ethyl]-2-{1-[2-(3-oxo-2,3-dihydro-benzo[1,4]oxazin-4-yl)-ethyl]-piperidin-4-yl}-benzamide]
IC50 [1]: 3 µM
Ki (Human UII receptors): 0.62 µM

CC(C)(C)OC(=O)NCCCCNC(=O)c1ccccc1C1CCN(CCN2C(=O)COc3ccccc32)CC1 [Cpd 35, [4-(2-{1-[2-(3-oxo-2,3-dihydro-benzo[1,4]oxazin-4-yl)-ethyl]-piperidin-4-yl}-benzoylamino)-butyl]-carbamic acid tert-butyl ester]
IC50 [1]: 3 µM
Ki (Human UII receptors): 0.59 µM

CC(C)(C)OC(=O)N1CCC(CNC(=O)c2ccccc2C2CCN(CCN3C(=O)COc4ccccc43)CC2)CC1 [Cpd 50, 4-[(2-{1-[2-(3-oxo-2,3-dihydro-benzo[1,4]oxazin-4-yl)-ethyl]-piperidin-4-yl}-benzoylamino)-methyl]-piperidine-1-carboxylic acid tert-butyl ester]
IC50 [1]: 2.5 µM
Ki (Human UII receptors): 0.43 µM

O=C(NCCNC(=O)c1ccccc1C1CCN(CCN2C(=O)COc3ccccc32)CC1)Nc1cccc2ccccc12 [Cpd 55, N-[2-(3-naphthalen-1-yl-ureido)-ethyl]-2-{1-[2-(3-oxo-2,3-dihydro-benzo[1,4]oxazin-4-yl)-ethyl]-piperidin-4-yl}-benzamide]
IC50 [1]: 2 µM
Ki (Human UII receptors): 0.84 µM

O=C(NCCc1ccccc1)c1cc(Cl)ccc1C1CCN(CCN2C(=O)COc3ccccc32)CC1 [Cpd 57, 5-chloro-2-{1-[2-(3-oxo-2,3-dihydro-benzo[1,4]oxazin-4-yl)-ethyl]-piperidin-4-yl}-N-phenethyl-benzamide]
IC50 [1]: 1.3 µM
Ki (Human UII receptors): 0.19 µM

CC(C)(C)OC(=O)N1CCC(CNC(=O)c2cc(Cl)ccc2C2CCN(CCN3C(=O)COc4ccccc43)CC2)CC1 [Cpd 58, 4-[(5-chloro-2-{1-[2-(3-oxo-2,3-dihydro-benzo[1,4]oxazin-4-yl)-ethyl]-piperidin-4-yl}-benzoylamino)-methyl]-piperidine-1-carboxylic acid tert-butyl ester]
IC50 [1]: 0.6 µM
Ki (Human UII receptors): 0.14 µM

O=C1COc2ccccc2N1CCN1CCC(c2ccccc2F)CC1 [Cpd 89, 4-{2-[4-(2-fluoro-phenyl)-piperidin-1-yl]-ethyl}-4H-benzo[1,4]oxazin-3-one]
IC50 [1]: 23 µM

Cc1ccc(C2CCN(CCN3C(=O)COc4ccccc43)CC2)cc1 [Cpd 90, 4-[2-(4-p-tolyl-piperidin-1-yl)-ethyl]-4H-benzo[1,4]oxazin-3-one]
IC50 [1]: 15 µM

Cc1ccccc1C1CCN(CCN2C(=O)COc3ccccc32)CC1 [Cpd 91, 4-[2-(4-o-tolyl-piperidin-1-yl)-ethyl]-4H-benzo[1,4]oxazin-3-one]
IC50 [1]: 21 µM

O=C1COc2ccccc2N1CCN1CCC(c2cccc(Cl)c2)CC1 [Cpd 92, 4-{2-[4-(3-chloro-phenyl)-piperidin-1-yl]-ethyl}-4H-benzo[1,4]oxazin-3-one]
IC50 [1]: 20 µM

COC(=O)c1ccccc1C1CCN(CCN2C(=O)COc3ccccc32)CC1 [Cpd 93]
IC50 [1]: 32 µM

CC(C)(C)OC(=O)N1CCN(CCNC(=O)c2ccccc2C2CC3CCC(C2)N3CCN2C(=O)COc3ccccc32)CC1 (centres unmarked) [Cpd 96, 4-[2-(2-{8-[2-(3-oxo-2,3-dihydro-benzo[1,4]oxazin-4-yl)-ethyl]-8-aza-bicyclo[3.2.1]oct-3-yl}-benzoylamino)-ethyl]-piperazine-1-carboxylic acid tert-butyl ester]
IC50 [1]: 3.5 µM

CC(C)(C)OC(=O)NCCCCCNC(=O)c1ccccc1C1CC2CCC(C1)N2CCN1C(=O)COc2ccccc21 (centres unmarked) [Cpd 97, [5-(2-{8-[2-(3-oxo-2,3-dihydro-benzo[1,4]oxazin-4-yl)-ethyl]-8-aza-bicyclo[3.2.1]oct-3-yl}-benzoylamino)-pentyl]-carbamic acid tert-butyl ester]
IC50 [1]: 5.4 µM

O=C1COc2ccccc2N1CCN1C2CCC1CC(c1ccccc1)C2 (centres unmarked) [Cpd 101, 4-[2-(3-phenyl-8-aza-bicyclo[3.2.1]oct-8-yl)-ethyl]-4H-benzo[1,4]oxazin-3-one]
IC50 [1]: 19 µM

CC1C=C(c2ccc(Cl)cc2C(=O)NCCCCCNC(=O)OC(C)(C)C)CC(C)N1CCN1C(=O)COc2ccccc21 (centres unmarked) [Cpd 102, [5-(5-chloro-2-{2,6-dimethyl-1-[2-(3-oxo-2,3-dihydro-benzo[1,4]oxazin-4-yl)-ethyl]-1,2,3,6-tetrahydro-pyridin-4-yl}-benzoylamino)pentyl]-carbamic acid tert-butyl ester]
IC50 [1]: 7.6 µM

O=C1COc2ccccc2N1CCN1CCC(C(=O)NCc2ccccc2)(c2ccccc2)CC1 [Cpd 104, 1-[2-(3-oxo-2,3-dihydro-benzo[1,4]oxazin-4-yl)-ethyl]-4-phenyl-piperidine-4-carboxylic acid benzylamide]
IC50 [1]: 26 µM

O=C1COc2ccccc2N1CCN1CCC(C(=O)NCCc2ccccc2)(c2ccccc2)CC1 [Cpd 105, 1-[2-(3-oxo-2,3-dihydro-benzo[1,4]oxazin-4-yl)-ethyl]-4-phenyl-piperidine-4-carboxylic acid phenethyl-amide]
IC50 [1]: 7 µM

CN(CCc1ccccc1)C(=O)C1(c2ccccc2)CCN(CCN2C(=O)COc3ccccc32)CC1 [Cpd 106, 1-[2-(3-oxo-2,3-dihydro-benzo[1,4]oxazin-4-yl)-ethyl]-4-phenyl-piperidine-4-carboxylic acid methyl-phenethyl-amide]
IC50 [1]: 14 µM

O=C1COc2ccccc2N1CCN1CCC(C(=O)NCCCc2ccccc2)(c2ccccc2)CC1 [Cpd 107, 1-[2-(3-oxo-2,3-dihydro-benzo[1,4]oxazin-4-yl)-ethyl]-4-phenyl-piperidine-4-carboxylic acid (3-phenyl-propyl)-amide]
IC50 [1]: 9.1 µM

O=C1COc2ccccc2N1CCN1CCC(C(=O)NCCCCc2ccccc2)(c2ccccc2)CC1 [Cpd 108, 1-[2-(3-oxo-2,3-dihydro-benzo[1,4]oxazin-4-yl)-ethyl]-4-phenyl-piperidine-4-carboxylic acid (4-phenyl-butyl)-amide]
IC50 [1]: 8.8 µM

O=C1COc2ccccc2N1CCN1CCC(C(=O)NCCc2ccccc2)(c2ccc(Cl)cc2)CC1 [Cpd 109, 4-(4-chloro-phenyl)-1-[2-(3-oxo-2,3-dihydro-benzo[1,4]oxazin-4-yl)-ethyl]-piperidine-4-carboxylic acid phenethyl-amide]
IC50 [1]: 5 µM
